The source of these data is patent US10201558B2, “Compositions of selenoorganic compounds and methods of use thereof” (Alltech, Inc., priority 2014, dated 2019).

Structures are written as SMILES. “Also recorded” adds a separate entry of the source.

The subject of one test is IMR-32 cells. In words: Mitochondrial potential assay (Mitotracker Orange). Type of test: cell-based, human. The conditions noted are these: 75 ppb and 150 ppb. As to the method: (§1) The mitochondrial potential per cell in control lentiviral KD IMR-32 or IMR-32 FOXO4 knockdown (KD) cells was determined using the Bio-TeK Synergy HT Multi-Mode fluorescence microplate reader with the following modifications. To improve the attachment of IMR-32 cells to culture dishes, cell culture plates were precoated with 0.1% gelatin (Sigma, St. Louis, Mo.).
(§2) To reduce cell dislodgment, Mitotracker Orange and Hoechst 33342 fluorescent dyes (diluted in culture media) were directly added to each well after control or compound treatments were added. After dye incubation, cell culture media was carefully replaced with 1×PBS buffer for the quantitation analysis of fluorescence on the microplate reader. Eight samples per each treatment were examined for the above analysis, and the experiments were repeated at least five times. Data are presented as mean±sem of eight samples.
Mitochondrial (MT) dysfunction and dysregulated glucose metabolism are associated with the onset of Alzheimer's Disease (AD). Likewise, as AD progresses, there is strong evidence that Aβ and Tau protein species precipitate further mitochondrial decline. […]

The subject of test [1] is phosphorylated FOXO3 in AML-12 cells. Briefly: Phosphorylated FOXO in AML-12 liver cells. It is filed as cell-based, mouse. The following applies: 150 ppb, 6 hours and 24 hours. As to the method: Expression of phosphorylated FOXO1/3/4 in a non-neuronal mouse AML-12 liver cell line was examined Tests were performed at the same time and under the same experimental conditions as the human IMR-32 cells.

The subject of test [2] is control KD and FOXO4KD IMR-32 cells. Briefly: Mitochondrial potential in control KD and FOXO4 knockdown IMR-32 cells. Type of test: cell-based, human. The conditions noted are these: 75 ppb and 150 ppb, 6 hours. As for the experimental part:
IMR-32 cells were cultured on 12-well plates for 24 hours and then incubated with FOXO4 siRNA lentiviruses (SC-29650V, Santa Cruz) or control siRNA lentiviruses (sc-108080, Santa Cruz) in the presence of Polybrene (5 μg/ml, Santa Cruz) for 24 hours according to the manufacturer's protocol. These lentiviral siRNA-transfected cells were amplified in normal media for 3 days and then incubated with puromycin for 9-14 days to obtain the stable Control KD (stably transfected with the control siRNAs) and FOXO4KD (stably transfected with Foxo4 siRNAs) cells. These control and Foxo4 KD cells were subjected to cell survival, mitochondrial potential and RNA analysis.
as §1, §2
To exclude the possibility that unknown factors in sera may affect the action of Compound C in cultured IMR-32 cells, cells were cultured in serum-free media for 24 hours, treated with Compound C (diluted in serum-free media) for 6 hours, and then subjected to MT analysis. Data were normalized by the fluorescence intensities of stained cell nuclei. Mean±SEM, n=8. The * refers to a p value <0.05 when compared to the control lentiviral KD cells group (0 ppb).

A further test has as its system APOE4. In words: Western blot of APOE4 protein in IMR-32 cells. The conditions noted are these: 150 ppb. Type of test: cell-based, human. As for the experimental part:
IMR-32 cells were seeded on 6-well plates and then treated with control and various compounds for 6 hours and 24 hours, as described above. After treatments, cells were rinsed with ice-cold PBS and lysed in ice-cold RIPA buffer containing complete proteinase and phosphatase inhibitors (Thermo-Fisher Scientific, Waltham, Mass.) on ice for 30 min Cell lysates were collected using a cell scraper and transfer pipette and then centrifuged at 12000×g for 30 min at 4° C. to remove the DNA pellet and obtain the protein extract. Protein levels in the supernatant of these cell lysates were determined using the Pierce Micro-BCA protein assay kit (Thermo Scientific-Piece Biotechnology, Rockford, Ill.) according to the manufacturer's protocol […]
Positive signals on the membrane blots were detected using Amersham's enhanced chemiluminescence (ECL) Western Blotting Prime Detection reagents (GE healthcare Lifescience, Pittsburgh, Pa.). Images of these luminescence signals on the membrane blots were captured using the LI-COR Odyssey Fc Image system (Lincoln, Nebr.). […] Protein band densities in the Western blots were determined using the Li—COR Image studio software or NIH ImageJ software, and then normalized by ACTB protein level in each sample. […]

`C[Se]C[C@H]1O[C@@H](n2cnc3c(N)ncnc32)C(O)C1O` (stereo in doubt) [Compound C, 5′-deoxy-5′-methylselenoadenosine]: the “MT potential (red fluorescence intensities, micrographs)” value in the test on IMR-32 cells (6 hours) is “remarkably enhanced”. For the same molecule, the “MT potential, quantitative analysis normalized by stained cell nuclei” value in the test with IMR-32 cells (6 hours and 24 hours) is “significant increase; also recorded: enhanced”. In test [1], the “phosphorylation of FOXO3” value is on record as “did not affect”. The MT potential entry in test [2] (FOXO4KD cells, serum-containing media) is “no significant effect”; in test [2] (FOXO4KD cells, serum-free media) it was “no significant increase”; in test [2] (normal control KD cells, serum-containing media) it was “significantly enhanced”; in test [2] (normal control KD cells, serum-free media) it was “significantly stimulated”. Also, the APOE4 protein levels entry is “not for 6 hour” in the test with APOE4 (6 hours) and “markedly decreased” in the test with APOE4 (24 hours).
